Measured values published in US8592467B2, “Benzothiazole cyclobutyl amine derivatives” (Abbvie Inc., priority 2005, dated 2013).

Row | Structure (SMILES) | melting point [°C]
1 | O=c1cccnn1-c1ccc2nc([C@H]3C[C@H](N4CCCCC4)C3)sc2c1 [Example 48A, Trans-2-[2-(3-piperidin-1-ylcyclobutyl)-1,3-benzothiazol-6-yl]pyridazin-3(2H)-one] | 139 to 140
2 | O=c1cccnn1-c1ccc2nc([C@H]3C[C@@H](N4CCCCC4)C3)sc2c1 [Example 48B, Cis-2-[2-(3-piperidin-1-ylcyclobutyl)-1,3-benzothiazol-6-yl]pyridazin-3(2H)-one] | 127 to 128
